We go through 43 compounds from ChEMBL document CHEMBL1201862, “PubChem BioAssay data set” (2004).

Each structure is given as a SMILES string. Activity calls are given as the source filed them. For most assays here, no stated cut-off is given here; in the data, actives have a measured EC50 and inactives only a lower limit. Where only a bound is given, the exact number is not on record here.

In general, AC50 refers to the concentration at which the activity in the assay is half-maximal.

For experiment [1], the target named is T1, Streptokinase A (Streptococcus pyogenes serotype M1, UniProt P10520).
T1 sequence (P10520 whole entry): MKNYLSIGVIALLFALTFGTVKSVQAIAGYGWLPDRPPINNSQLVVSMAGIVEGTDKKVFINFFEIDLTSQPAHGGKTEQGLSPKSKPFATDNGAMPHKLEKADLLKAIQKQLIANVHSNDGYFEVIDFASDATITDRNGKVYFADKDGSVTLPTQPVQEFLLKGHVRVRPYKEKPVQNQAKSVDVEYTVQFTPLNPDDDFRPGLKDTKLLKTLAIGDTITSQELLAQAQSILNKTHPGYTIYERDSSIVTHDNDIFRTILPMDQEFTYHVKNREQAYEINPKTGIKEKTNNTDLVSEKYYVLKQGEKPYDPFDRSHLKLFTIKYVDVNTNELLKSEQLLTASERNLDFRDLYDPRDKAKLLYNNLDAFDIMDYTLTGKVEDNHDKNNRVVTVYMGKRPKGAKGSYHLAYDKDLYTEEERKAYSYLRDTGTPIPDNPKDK
Briefly: viability-normalized secreted streptokinase activity reduction – plasminogen activation absorbance, OD405, dose response (AID 1914).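 Further: secreted streptokinase activity via plasminogen activation per viability signal from cell pellet.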 It is filed as functional, Streptococcus pyogenes M1 GAS.

Experiment [2] concerns Streptococcus sp. 'group A'. The experiment can be described thus: Streptococcus pyogenes SK(-)GAS viability under kanamycin – luminescence, BacTiterGlo, confirmation, counter-screen for streptokinase expression inhibitor project, dose response (AID 1900). In kind it is functional, organism-based. For orientation: The purpose of a counterscreen is to sort out artefacts and off-target activity.

Experiment [3] deals with Streptococcus. Briefly: GAS UMAA2166 growth inhibition – luminescence, BacTiterGlo, counter-screen for streptokinase expression inhibitor project, dose response (AID 1915).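 Further: potency for reduction of bacterial viability or growth.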 It is filed as functional, organism-based.
The target of experiment [4] is T2, Corticotropin-releasing factor receptor 2/Corticotropin-releasing factor-binding protein (Homo sapiens, UniProt P24387+Q13324).
T2 sequence (Q13324 whole entry): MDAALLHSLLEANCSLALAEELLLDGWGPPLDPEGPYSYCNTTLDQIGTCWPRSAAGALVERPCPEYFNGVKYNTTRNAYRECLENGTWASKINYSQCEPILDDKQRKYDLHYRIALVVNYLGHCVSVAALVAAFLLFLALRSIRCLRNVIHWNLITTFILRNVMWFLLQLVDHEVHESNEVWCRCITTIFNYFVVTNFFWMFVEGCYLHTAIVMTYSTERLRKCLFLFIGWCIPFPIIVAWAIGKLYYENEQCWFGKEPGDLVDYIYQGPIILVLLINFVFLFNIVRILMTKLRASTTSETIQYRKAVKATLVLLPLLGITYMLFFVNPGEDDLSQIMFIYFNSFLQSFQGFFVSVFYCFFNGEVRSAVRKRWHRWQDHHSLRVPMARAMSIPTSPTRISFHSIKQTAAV
T2 sequence (P24387 whole entry): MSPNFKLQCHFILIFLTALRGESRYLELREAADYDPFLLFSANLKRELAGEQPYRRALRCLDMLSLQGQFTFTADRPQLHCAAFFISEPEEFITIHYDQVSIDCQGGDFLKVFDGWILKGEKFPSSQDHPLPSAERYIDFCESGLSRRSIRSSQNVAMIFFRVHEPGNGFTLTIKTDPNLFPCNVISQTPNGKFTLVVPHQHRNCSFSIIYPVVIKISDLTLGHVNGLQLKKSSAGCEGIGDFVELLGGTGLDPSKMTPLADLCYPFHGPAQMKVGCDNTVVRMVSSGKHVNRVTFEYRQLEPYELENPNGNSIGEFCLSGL
Briefly: activators of CRF receptor 2 with binding protein – uHTS hits, confirmation (AID 602473). In kind it is functional. Conditions: read-out: EC50_Mean.

The nature of experiment [5]: Trypanosoma cruzi growth suppression in host cells – NIH3T3 host cells, beta-gal luminescence, confirmation (AID 2044).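 Further: intracellular parasites grown in NIH/3T3 mouse fibroblasts as host cells; luminescent beta-galactosidase reporter signal from transgenic T. cruzi replicating inside host cells; inhibitors lower the luminescence signal.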 In kind it is functional, cell-based.
Experiment [6] can be described thus: NIH3T3 cell viability loss – ATP luminescence, mouse fibroblasts, counter-screen, dose response (AID 2010).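 Further: cells exposed to compound for about 90 hours before reading.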 It is filed as functional, cell-based.
For experiment [7], the target named is Cytochrome P450 3A4 (Homo sapiens, UniProt P08684).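 Further: CYP3A4 tested as one member of a cytochrome P450 panel screen.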
A short description of experiment [8]: Luminescence Cell-Based Dose Response HTS to Identify Inhibitors of 5'UTR Stem-Loop Driven Prion Protein mRNA Translation in H4 Neuroglioblastoma Cells. [Related pubchem assays: 1827 (Project Summary), 1813 (Primary HTS)]. In kind it is functional.
A short description of experiment [9]: luciferase reporter signal suppression in cells – H4 neuroglioma cells, luminescence, dose response (AID 1990). In kind it is functional, cell-based.
A short description of experiment [10]: alpha-synuclein stem-loop luciferase translation blockers – H4 neuroglioma cells, luminescence, confirmation (AID 1988). In kind it is functional, cell-based.
The nature of experiment [11]: Luminescence Cell-Based Dose Response HTS to Identify Activators of Luciferase Translation or Activity in H4 […] Cells. [Related pubchem assays: 1829 (Project Summary), 1814 (Primary HTS)]. In kind it is functional.

Cytochrome P450 3A4, sequence (P08684 whole entry): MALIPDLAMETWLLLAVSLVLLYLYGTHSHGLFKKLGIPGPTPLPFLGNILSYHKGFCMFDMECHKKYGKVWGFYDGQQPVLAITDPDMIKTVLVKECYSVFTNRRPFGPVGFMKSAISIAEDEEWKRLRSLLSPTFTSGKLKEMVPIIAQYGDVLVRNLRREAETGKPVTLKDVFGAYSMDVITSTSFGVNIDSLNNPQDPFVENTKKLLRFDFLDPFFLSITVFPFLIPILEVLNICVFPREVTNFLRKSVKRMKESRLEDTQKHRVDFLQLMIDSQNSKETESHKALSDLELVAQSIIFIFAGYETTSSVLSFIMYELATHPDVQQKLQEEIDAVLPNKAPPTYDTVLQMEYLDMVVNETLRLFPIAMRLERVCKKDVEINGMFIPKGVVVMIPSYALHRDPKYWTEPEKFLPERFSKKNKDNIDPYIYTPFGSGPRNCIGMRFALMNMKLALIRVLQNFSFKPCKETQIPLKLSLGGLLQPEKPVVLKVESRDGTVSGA

Turning to `Cc1cc(C(=O)NCC(=O)OC(C(=O)Nc2cc(C(F)(F)F)ccc2Cl)c2ccccc2)ccc1[N+](=O)[O-]` (stereo not given), the EC50 in experiment [1], in experiment [2] and in experiment [3] was > 150 µM (not active) each time.

For `COc1ccc(CCn2c(C(C)C)nc3c(c(=O)c4ccccc4n3C)c2=O)cc1`, in experiment [4], the EC50 was 7.87 µM (active).

Regarding `Cc1nn(Cc2ccccc2)c(C)c1NC(=O)c1ccc([N+](=O)[O-])cc1[N+](=O)[O-]`, the EC50 is 0.307 µM (active) in experiment [5] and > 60 µM (not active) in experiment [6].

Turning to `O=C(Oc1ccccc1)N1CCC2(CC1)CN(c1ccncc1)C2`, in experiment [7], the AC50 is 15.8 µM (inconclusive).

Regarding `C[C@@H]1O[C@@H]2C3=C(C(=O)[C@H]4O[C@@H]4[C@H]3O)C1[C@@H]1[C@@H](C)OC=C3[C@H](O)[C@H]4O[C@@H]4/C(=N\OCc4ccccc4)[C@@]321`, the AC50 in experiment [7] was 6.31 µM (inconclusive).

With `Clc1ccc(-c2csc(Nc3cccnc3)n2)cc1`, the figures for the EC50 in [5] and in [6] were 0.3 µM (active) and > 60 µM (not active), respectively.

Take `CCCCN(Cc1cc2cc(OC)ccc2nc1O)S(=O)(=O)c1ccc(C)cc1`: the EC50 is 11.3 µM (active) in experiment [8], 16 µM (active) in experiment [9] and 11.1 µM (active) in [10].

As to `Nc1nc2n(n1)C(c1cccc(Br)c1)CC(c1ccc(F)cc1)N2` (stereo not given), in experiment [4], the EC50 is > 53 µM (inactive).

On to `CN(c1ccc(OCC(=O)Nc2nc(-c3ccccc3)cs2)cc1)S(=O)(=O)c1ccc(F)cc1`, for which the EC50 in [5] was 1.14 µM (active); in [6] it was > 60 µM (not active).

As for `CCOC(=O)c1cccc(NC(=O)/C=C/c2ccc3c(c2)OCO3)c1`, the EC50 in [8] was 0.361 µM (active); in [9], 2.11 µM (active).

For `CCc1cccc(C)c1NC(=O)COC(=O)c1c2c(nc3ccccc13)/C(=C\c1cccs1)CCC2`, the EC50 in [5] was 2.22 µM (active); in experiment [6], > 60 µM (not active).

Regarding `COc1ccc(Cl)cc1N=C(S)N(Cc1cccnc1)Cc1ccco1`, the EC50 was 0.722 µM (active) in [5] and > 60 µM (not active) in [6].

Consider `CCOC(=O)c1ccc(Nc2nc(C)nc3c2nnn3Cc2ccccc2)cc1`, for which the EC50 was > 150 µM (not active) in experiment [1], 13.4 µM (active) in experiment [2] and > 150 µM (not active) in experiment [3].

In the case of `Cc1nc(-c2ccccc2)sc1-c1ccnn1C`, in experiment [11], the EC50 was 0.367 µM (active).

For the compound `CNC(=O)[C@@H]1O[C@@H](n2cnc3c(NCc4cccc(I)c4)ncnc32)[C@H](O)[C@@H]1O`, in [7], the AC50 is 39.8 µM (inconclusive).

Take `O=C(COC(=O)Cc1cn2ccsc2n1)Nc1nc2ccccc2s1`: the EC50 in experiment [1] was > 150 µM (not active); in experiment [2] it was 2.64 µM (active); in experiment [3], 6.72 µM (active).

Regarding `COc1ccc(-c2cc(C(F)(F)F)n3ncc(C(=O)N4CCc5ccccc5C4)c3n2)cc1`, the EC50 was 1.84 µM (active) in [5] and > 60 µM (not active) in experiment [6].

For the compound `Cc1cc(C)c2nc(N(CCCN(C)C)C(=O)c3ccc4c(c3)OCCO4)sc2c1`, the values for the EC50 in [5] and in experiment [6] were 0.5 µM (active) and 54.2 µM (active), respectively.

As to `O=C(C1CCCCC1)N1CCC(c2nc(O)c3nnn(Cc4c(F)cccc4Cl)c3n2)CC1`, the values for the EC50 in experiment [1], in [2] and in experiment [3] were > 150 µM (not active), 4.19 µM (active) and 9.82 µM (active), respectively.

Take `CC(CCN(C)C)OC(=O)c1ccc(C(C)c2ccccc2)o1` (stereo not given): the EC50 in [5] is 0.845 µM (active); in experiment [6] it was > 60 µM (not active).

For `O=C(c1cc(-c2ccncc2)nc2ccc(Cl)cc12)N1CCN(Cc2ccc3c(c2)OCO3)CC1`, the EC50 was 0.152 µM (active) in [5] and > 60 µM (not active) in experiment [6].

Consider `O=S(=O)(c1ccccc1)N1CCC2(CCN(c3ncccn3)CC2)CC1`, for which the AC50 in experiment [7] was 31.6 µM (inconclusive).

As for `CCc1ccccc1N=C(S)NCCSc1ccc(Cl)cc1`, the EC50 in [2] was 19.9 µM (active); in experiment [3], > 150 µM (not active).

For the compound `CCc1ccccc1NC(=S)NCCSc1ccc(Cl)cc1`, in [1], the EC50 was 30.5 µM (active).

In the case of `O=c1c(-c2cc(F)cc(F)c2)nc2cncnc2n1Cc1ccc(F)cc1`, the concentration at half-maximal activity (AC50) in [7] was 10 µM (inconclusive).

As to `OCCN1CCN(Cc2cccc(Oc3ccc(Cl)cc3)c2)CC1`, the values for the EC50 in experiment [5] and in [6] were 3.92 µM (active) and > 60 µM (not active), respectively.

As to `COc1cccc(NC(=O)NCCCCc2ccccc2)c1`, the EC50 was 106 µM (active) in experiment [1], > 150 µM (not active) in experiment [2] and > 150 µM (not active) in [3].

On to `CCOC(=O)c1sc2nc(Cc3ccc(Cl)cc3)nc(S)c2c1C`, for which the results for the EC50 in experiment [2] and in [3] were 4.03 µM (active) and > 150 µM (not active), respectively.

Regarding `O=C(CSc1nnnn1-c1cccc2ccccc12)Nc1ccc(N2CCOCC2)c(Cl)c1`, the EC50 in experiment [5] was 0.457 µM (active); in experiment [6], > 60 µM (inconclusive).

Turning to `Cc1ccc(Cn2nnc(C(=O)Nc3cccc(C)c3C)c2N)cc1`, the EC50 in experiment [4] is 7.98 µM (active).

Consider `CCOc1ccc(NC(=S)N2CCc3cc(OC)c(OC)cc3C2COc2ccc3c(C)cc(=O)oc3c2)cc1` (stereo not given), for which the EC50 in experiment [8] is 39.9 µM (active); in experiment [9], 30.4 µM (active); in experiment [10], > 120 µM (not active).

Turning to `Cc1ccc(NNC(=O)C2CCC2)cc1C`, the EC50 in experiment [1], in experiment [2] and in experiment [3] was > 150 µM (not active) throughout.

`C/C(CCN1CCCc2nc(C)c(C)cc21)=N\OC[C@@H](C)[C@H](OCc1ccccc1)C(C)C`: the AC50 in experiment [7] is 3.16 µM (inconclusive).

Consider `CO[C@H]1COC(=O)C/C=C\[C@H](C)COC(=O)[C@@H](OCc2ccccc2)/C=C\[C@@H]1C`, for which the AC50 in [7] is 3.98 µM (inconclusive).

For the compound `CCOC(=O)c1sc(NC(=O)c2ccc(S(=O)(=O)N(C)C)cc2)cc1C`, the EC50 was 2.21 µM (active) in [5] and 8.88 µM (active) in [6].

Turning to `O=C(Cn1c(C(=O)N2CCN(C3CCCCC3)CC2)cc2sccc21)c1ccccc1`, the EC50 in [5] is 2.53 µM (active); in experiment [6], > 60 µM (not active).

For `O[Si@](CCCN1CCCCC1)(c1ccc(F)cc1)C1CCCCC1`, the AC50 in experiment [7] is 3.98 µM (inconclusive).

As to `Cc1c(C)n(C(=O)CN2CCC(C)CC2)c2ccccc12`, the AC50 in experiment [7] is 17.8 µM (inconclusive).

In the case of `CCN(CC)c1ccc(NC(=O)c2ccc3c(c2)c(C)c(C)n3C)cc1`, the results for the EC50 in experiment [5] and in experiment [6] were 1.63 µM (active) and > 60 µM (not active), respectively.

Regarding `Cc1ccc(NC(=N)Nc2nc(C)cc(C)n2)cc1`, in experiment [4], the EC50 was 9.85 µM (active).

Take `Sc1nnc(-c2cc(-c3ccccc3)[nH]n2)n1/N=C/c1ccc(Cl)cc1`: the EC50 was > 150 µM (not active) in experiment [1], 18 µM (active) in experiment [2] and 21.4 µM (active) in experiment [3].

`NC(=S)N/N=C\c1ccccc1OCc1ccccc1`: the EC50 in [5] is 0.623 µM (active); in experiment [6], > 30 µM (not active).

`C=CCNC(=S)N/N=C/c1ccc(-c2ccc(Cl)cc2Cl)o1`: the EC50 in experiment [5] is 1.6 µM (active); in experiment [6], > 60 µM (not active).
